Columns and labels:
NC/Nga mice [1] = experiment: Histological analysis (H&E) of AD-like skin lesions; type: in vivo, mouse; conditions: n = 10
Procedure: (§1) To induce experimental AD-like skin lesions in mouse, we used cutaneous Biostir-AD for challenging NC/Nga mice, according to the manufacturer’s instructions. After 1 week of acclimation, AD was induced. Briefly, the dorsal part of each mouse was shaved with an electric shaver, and then the remaining hair was removed using a depilatory cream. Twice weekly for three weeks, growing hair was shaved with the electric shaver, followed by application of 150 μL of 4% sodium dodecyl sulfate to the treated area (barrier disruption). Biostir-AD (200 mg/mouse) was applied 3 h after barrier disruption. […] The concentration of Ac-RLYE used in the present study was determined based on the results of previous preliminary experiments (unpublished data). […]
(§2) The dorsal skin tissues were isolated, fixed in 10% formalin immediately after excision from the mice, and embedded in paraffin. […] Skin samples were observed and measured with an Olympus BX53 light microscope (Olympus Corporation, Tokyo, Japan). From the histopathological findings, the severity of skin manifestations was assessed on the epidermis (hypertrophy, hyperkeratosis, and infiltration by inflammatory cells) and on the dermis (infiltration by inflammatory cells) and was expressed as the sum of the individual score grades from 0 to 3 (0, no symptoms; 1, mild; 2, moderate; 3, severe), as described previously. […]

[2] = system: Th1, Th2 and Th17 cytokines; experiment: qRT-PCR of cytokine mRNA in AD-like skin lesions; type: in vivo, mouse; conditions: skin at Day 48, normalized to GAPDH, versus vehicle, n = 10
Procedure: (§3) To induce experimental AD-like skin lesions in mouse, we used cutaneous Biostir-AD for challenging NC/Nga mice, according to the manufacturer’s instructions. After 1 week of acclimation, AD was induced. Briefly, the dorsal part of each mouse was shaved with an electric shaver, and then the remaining hair was removed using a depilatory cream. Twice weekly for three weeks, growing hair was shaved with the electric shaver, followed by application of 150 μL of 4% sodium dodecyl sulfate to the treated area (barrier disruption). Biostir-AD (200 mg/mouse) was applied 3 h after barrier disruption. Fifty mice were divided into five groups of five mice per cage (n = 10 per group): group 1, control (Biostir-AD + vehicle (distilled water only)); group 2, 0.1% tacrolimus (Biostir-AD + Protopic (positive control)); group 3, 0.004% Ac-RLYE (Biostir-AD + 0.004% Ac-RLYE in distilled water); group 4, 0.02% Ac-RLYE (Biostir-AD + 0.02% Ac-RLYE in distilled water); and group 5, 0.1% Ac-RLYE (Biostir-AD + 0.1% Ac-RLYE in distilled water). Ac-RLYE or 0.1% tacrolimus (100 μL/mouse) was applied daily for 4 weeks. The concentration of Ac-RLYE used in the present study was determined based on the results of previous preliminary experiments (unpublished data). The mice were sacrificed after 4 weeks of Ac-RLYE treatment (Figure 2A, on Day 48).
Both the ear and dorsal skin of each mouse were excised using a surgical knife, pooled, and used for RNA isolation. Total RNA was prepared using an RNA isolation kit (GeneAll® Hybrid-R™, GeneAll, Korea) following the manufacturer’s instructions. RNA was quantified using a BioTek Take3^TM Multi-Volume plate (Agilent BioTek Instruments, Winooski, VT, USA). An equal amount of total RNA was reverse-transcribed using ReverTra Ace™ qPCR RT Master Mix with gDNA Remover (Toyobo CO., LTD., Osaka, Japan) according to the manufacturer’s instructions. Real time-PCR was performed on a CFX96™ Touch Real-Time PCR System (Bio-Rad, Hercules, CA) using TB Green® Premix Ex Taq™ (Takara, Shiga, Japan). Quantification of the target gene expression was determined by the comparative […] method. The relative expression levels were determined by normalizing expression to glyceraldehyde 3-phosphate dehydrogenase (GAPDH). The level of each target gene was expressed as the relative fold change.

NC/Nga mice [3] = experiment: Dermatitis severity score in HDM (Biostir-AD)-induced AD-like skin lesions; type: in vivo; conditions: topical 100 μL/mouse daily for 4 weeks, Day 48, mean ± SD, n = 10
Procedure: as §3, with “48). The severity of the dermatitis was measured macroscopically and scored once a week by using a previously established method based on the clinical signs and symptoms of AD, namely, erythema (hemorrhage), edema, excoriation (erosion), and scaling (dryness). The total dermatitis severity score was defined as the sum of the component scores (0, no symptoms; 1, mild; 2, moderate; 3, severe) for each mouse, ranging from 0 to 12.” for “48).”

HUVECs = experiment: Immunofluorescence of ZO-1 and VE-cadherin junctions in VEGF-A-stimulated HUVECs; type: cell-based, human; conditions: HUVECs pre-treated 30 min with 0.15 nM Ac-RLYE, then 10 ng/mL VEGF-A for 1 h; confocal immunofluorescence, Image J; n = 3
Procedure: Figure 1 Ac-RLYE inhibits VEGF-A-induced junctional integrity loss in HUVECs. Cells were pre-treated for 30 min with Ac-RLYE (0.15 nM) followed by stimulation with 10 ng/mL VEGF-A (V) for 1 h. (A) Confocal images of ZO-1 and VE-cadherin. (B) Quantification of ZO-1 and VE-cadherin at contact sites between endothelial cells (n = 3). Data are represented as mean ± SD values. *** p < 0.001.
Collagenase type II (Worthington Biochemical Corporation, Lakewood, NJ) was used to isolate human umbilical vein endothelial cells (HUVECs) from umbilical cord veins. The cells were cultured on gelatin-coated plates in Medium 199 supplemented with 20% FBS, 100 U/mL penicillin–streptomycin, 3 ng/mL bFGF, and 5 U/mL heparin. Trypsinization was used to collect the cells (up to passage 7), which were then used for assays.
HUVECs were grown as a monolayer on 2% gelatin-coated cover glasses and cultured in M199 medium containing 1% FBS. The cells were pretreated with 0.15 nM Ac-RLYE for 30 min and stimulated with 10 ng/mL VEGF-A for 1 h. […] The levels of VE-cadherin and ZO-1 were quantified using Image J software.

NC/Nga mice [4] = experiment: Differential cell counting of blood; type: in vivo, mouse; conditions: differential counting at Day 48; versus vehicle-treated control; n = 10
Procedure: as §3
Whole blood samples were collected from the mice and used for analysis. […]

NC/Nga mice [5] = experiment: Ear thickness in HDM-induced AD model; type: in vivo, mouse; conditions: n = 10
Procedure: as §3, with “The mice were sacrificed after 4 weeks of Ac-RLYE treatment (Figure 2A, on Day 48).” left out
Ear thickness was measured on the first day of Ac-RLYE application and then once a week using calipers.

filaggrin (FLG) = experiment: Skin filaggrin (FLG) ELISA; type: in vivo, mouse; conditions: n = 10; for FLG level in dorsal skin: mean ± SD
Procedure: as §3, with “48). The dorsal skin was collected from mice after 4 weeks of Ac-RLYE or tacrolimus treatment and stored at −80 °C until use. The dorsal skin tissues were homogenized in RIPA lysis buffer containing a protease inhibitor and a phosphatase inhibitor and centrifuged at 13,000 rpm for 10 min at 4 °C. The supernatant was collected for a protein assay using a Pierce™ BCA Protein Assay Kit (Thermo Fisher Scientific, Inc., Waltham, MA, USA). The level of FLG in mouse skin tissue was quantified using an ELISA kit (MyBioSource, Inc., San Diego, CA, USA) in accordance with the manufacturer’s instructions.” for “48).”

NC/Nga mice [6] = experiment: Mast cell infiltration (toluidine blue staining); type: in vivo, mouse; conditions: Day 48, versus vehicle-treated group, n = 10
Procedure: as §1, §2

IgE = experiment: Plasma IgE ELISA; type: in vivo, mouse; conditions: Day 48, topical application, versus vehicle-treated group, n = 10
Procedure: as §1
The blood samples were drawn from mice, and the plasma was separated by centrifugation at 10,000× g for 10 min at 4 °C and stored at −80 °C until tested. The plasma level of IgE was measured by ELISA according to the manufacturer’s instructions (Mouse IgE ELISA Kit, Abcam, Cambridge, UK).

Row | Molecule | Infiltration of inflammatory cells in epidermis and dermis (NC/Nga mice [1]; Day 48, all Ac-RLYE-treated groups versus vehicle-treated HDM group) | Scores of hypertrophy and hyperkeratosis in epidermis (NC/Nga mice [1]; Day 48, versus vehicle-treated HDM group) | Expression of IFN-γ [2] | Expression of IL-17A (Th17 cytokine) [2] | Expression of Th1 cytokines IL-23 and TNF-α [2] | mRNA levels of Th2-type cytokines IL-4, IL-13, IL-31 and Th2 chemokine CCL17 [2] | Dermatitis score (sum of erythema, edema, excoriation, scaling; 0-12) (NC/Nga mice [3]; 0.004% in distilled water) | Dermatitis score (sum of erythema, edema, excoriation, scaling; 0-12) (NC/Nga mice [3]; 0.02% in distilled water) | Dermatitis score (sum of erythema, edema, excoriation, scaling; 0-12) (NC/Nga mice [3]; 0.1% in distilled water) | VEGF-induced cellular junction disruption (ZO-1 and VE-cadherin at cell-cell contact sites) (HUVECs) | Number of leukocytes, neutrophils and eosinophils in blood (NC/Nga mice [4]) | Effect on ear thickness compared with tacrolimus (NC/Nga mice [5]; doses above 0.02%, Day 48) | Increase in ear thickness after HDM (NC/Nga mice [5]; topical 0.004-0.1% once daily for 4 weeks, dose-dependent, versus vehicle) | FLG level in dorsal skin (filaggrin (FLG); 0.1% Ac-RLYE topical daily for 4 weeks) [pg/mL] | Protein level of FLG versus vehicle-treated AD group (filaggrin (FLG); Ac-RLYE groups 0.004-0.1%, dose-dependent) | Accumulation of mast cells in AD-like skin lesion (NC/Nga mice [6]) | Plasma IgE (IgE) | Dermatitis score (sum of erythema, edema, excoriation, scaling; 0-12) (NC/Nga mice [3]; 0.1% tacrolimus ointment (Protopic)) | FLG level in dorsal skin (filaggrin (FLG); 0.1% tacrolimus ointment topical daily for 4 weeks) [pg/mL]
1 | N-acetyl-Arg-Leu-Tyr-Glu [Ac-RLYE] | less infiltration | decreased | increased | suppressed | inhibited | remarkably inhibited | 7.4 ± 0.8 | 5.8 ± 2.3 | 4.5 ± 2.4 | significantly attenuated | dose-dependently lowered | slightly better than that of tacrolimus | significantly attenuated | 1469.4 ± 105.2 | significantly restored | reduced | significantly lowered |  | 
2 | C=CC[C@@H]1/C=C(\C)C[C@H](C)C[C@H](OC)[C@H]2O[C@@](O)(C(=O)C(=O)N3CCCC[C@H]3C(=O)O[C@H](/C(C)=C/[C@@H]3CC[C@@H](O)[C@H](OC)C3)[C@H](C)[C@@H](O)CC1=O)[C@H](C)C[C@@H]2OC [tacrolimus, reference compound] |  |  |  |  |  |  |  |  |  |  |  |  |  |  |  |  |  | 4.5 ± 2.4 | 1444.8 ± 110.5
